# Tests used:
# [1] = target: RAC-beta serine/threonine-protein kinase (Homo sapiens) (UniProt P31751); conditions: Compound concentration 1000.0 nM
# [2] = target: Bone morphogenetic protein receptor type-1B (Homo sapiens) (UniProt O00238); conditions: Compound concentration 1000.0 nM
# [3] = system: Serine/threonine-protein kinase B-raf (Homo sapiens), P15056 [V600E]; conditions: Compound concentration 1000.0 nM
# [4] = target: Cyclin-dependent kinase 2 (Homo sapiens) (UniProt P24941); conditions: Compound concentration 1000.0 nM
# [5] = target: Cyclin-dependent kinase 8 (Homo sapiens) (UniProt P49336); conditions: Compound concentration 1000.0 nM
# [6] = target: Dual specificity protein kinase CLK1 (Homo sapiens) (UniProt P49759); conditions: Compound concentration 1000.0 nM
# [7] = target: Macrophage colony-stimulating factor 1 receptor (Homo sapiens) (UniProt P07333); conditions: Compound concentration 1000.0 nM
# [8] = target: Megakaryocyte-associated tyrosine-protein kinase (Homo sapiens) (UniProt P42679); conditions: Compound concentration 1000.0 nM
# [9] = target: Dual specificity tyrosine-phosphorylation-regulated kinase 1B (Homo sapiens) (UniProt Q9Y463); conditions: Compound concentration 1000.0 nM
# [10] = system: Epidermal growth factor receptor (Homo sapiens), P00533 [G719C]; conditions: Compound concentration 1000.0 nM
# [11] = target: Tyrosine-protein kinase HCK (Homo sapiens) (UniProt P08631); conditions: Compound concentration 1000.0 nM
# [12] = system: Mast/stem cell growth factor receptor Kit (Homo sapiens), P10721 [L576P]; conditions: Compound concentration 1000.0 nM
# [13] = target: LIM domain kinase 1 (Homo sapiens) (UniProt P53667); conditions: Compound concentration 1000.0 nM
# [14] = target: Mitogen-activated protein kinase kinase kinase 13 (Homo sapiens) (UniProt O43283); conditions: Compound concentration 1000.0 nM
# [15] = target: Mitogen-activated protein kinase kinase kinase 2 (Homo sapiens) (UniProt Q9Y2U5); conditions: Compound concentration 1000.0 nM
# [16] = target: Mitogen-activated protein kinase kinase kinase kinase 5 (Homo sapiens) (UniProt Q9Y4K4); conditions: Compound concentration 1000.0 nM
# [17] = target: MAP kinase-activated protein kinase 2 (Homo sapiens) (UniProt P49137); conditions: Compound concentration 1000.0 nM
# [18] = target: Dual specificity mitogen-activated protein kinase kinase 5 (Homo sapiens) (UniProt Q13163); conditions: Compound concentration 1000.0 nM
# [19] = target: Maternal embryonic leucine zipper kinase (Homo sapiens) (UniProt Q14680); conditions: Compound concentration 1000.0 nM
# [20] = target: Dual specificity mitogen-activated protein kinase kinase 7 (Homo sapiens) (UniProt O14733); conditions: Compound concentration 1000.0 nM
# [21] = target: Serine/threonine-protein kinase 26 (Homo sapiens) (UniProt Q9P289); conditions: Compound concentration 1000.0 nM
# [22] = target: Myosin-IIIa (Homo sapiens) (UniProt Q8NEV4); conditions: Compound concentration 1000.0 nM
# [23] = target: Calcium-dependent protein kinase 1 (Plasmodium falciparum) (UniProt P62344); conditions: Compound concentration 1000.0 nM
# [24] = target: Phosphorylase b kinase gamma catalytic chain, skeletal muscle/heart isoform (Homo sapiens) (UniProt Q16816); conditions: Compound concentration 1000.0 nM
# [25] = target: Phosphatidylinositol 3-kinase C2 domain-containing subunit gamma (Homo sapiens) (UniProt O75747); conditions: Compound concentration 1000.0 nM
# [26] = target: Phosphatidylinositol 5-phosphate 4-kinase type-2 beta (Homo sapiens) (UniProt P78356); conditions: Compound concentration 1000.0 nM
# [27] = target: Membrane-associated tyrosine- and threonine-specific cdc2-inhibitory kinase (Homo sapiens) (UniProt Q99640); conditions: Compound concentration 1000.0 nM
# [28] = target: Ribosomal protein S6 kinase alpha-1 (Homo sapiens) (UniProt Q15418); conditions: Compound concentration 1000.0 nM
# [29] = target: Ribosomal protein S6 kinase alpha-3 (Homo sapiens) (UniProt P51812); conditions: Compound concentration 1000.0 nM
# [30] = target: Tyrosine-protein kinase SYK (Homo sapiens) (UniProt P43405); conditions: Compound concentration 1000.0 nM
# [31] = target: Serine/threonine-protein kinase TAO2 (Homo sapiens) (UniProt Q9UL54); conditions: Compound concentration 1000.0 nM
# [32] = target: TGF-beta receptor type-1 (Homo sapiens) (UniProt P36897); conditions: Compound concentration 1000.0 nM
# [33] = target: Activated CDC42 kinase 1 (Homo sapiens) (UniProt Q07912); conditions: Compound concentration 1000.0 nM
# [34] = target: Serine/threonine-protein kinase TNNI3K (Homo sapiens) (UniProt Q59H18); conditions: Compound concentration 1000.0 nM
# [35] = target: NT-3 growth factor receptor (Homo sapiens) (UniProt Q16288); conditions: Compound concentration 1000.0 nM
# [36] = target: Transient receptor potential cation channel subfamily M member 6 (Homo sapiens) (UniProt Q9BX84); conditions: Compound concentration 1000.0 nM
# [37] = target: Testis-specific serine/threonine-protein kinase 3 (Homo sapiens) (UniProt Q96PN8); conditions: Compound concentration 1000.0 nM
# [38] = target: Phosphatidylinositol 3-kinase catalytic subunit type 3 (Homo sapiens) (UniProt Q8NEB9); conditions: Compound concentration 1000.0 nM
# [39] = target: Wee1-like protein kinase (Homo sapiens) (UniProt P30291); conditions: Compound concentration 1000.0 nM
# [40] = target: Serine/threonine-protein kinase WNK4 (Homo sapiens) (UniProt Q96J92); conditions: Compound concentration 1000.0 nM
# [41] = target: Serine/threonine-protein kinase 32B (Homo sapiens) (UniProt Q9NY57); conditions: Compound concentration 1000.0 nM
# [42] = target: 5-hydroxytryptamine receptor 1D (Homo sapiens) (UniProt P28221); conditions: Compound concentration 10.0 uM
# [43] = target: 5-hydroxytryptamine receptor 2A (Homo sapiens) (UniProt P28223); conditions: Compound concentration 10.0 uM
# [44] = target: D(1A) dopamine receptor (Homo sapiens) (UniProt P21728); conditions: Compound concentration 10.0 uM
# [45] = target: Alpha-2B adrenergic receptor (Homo sapiens) (UniProt P18089); conditions: Compound concentration 10.0 uM
# Dual specificity mitogen-activated protein kinase kinase 5 (Homo sapiens), sequence (Q13163 whole entry): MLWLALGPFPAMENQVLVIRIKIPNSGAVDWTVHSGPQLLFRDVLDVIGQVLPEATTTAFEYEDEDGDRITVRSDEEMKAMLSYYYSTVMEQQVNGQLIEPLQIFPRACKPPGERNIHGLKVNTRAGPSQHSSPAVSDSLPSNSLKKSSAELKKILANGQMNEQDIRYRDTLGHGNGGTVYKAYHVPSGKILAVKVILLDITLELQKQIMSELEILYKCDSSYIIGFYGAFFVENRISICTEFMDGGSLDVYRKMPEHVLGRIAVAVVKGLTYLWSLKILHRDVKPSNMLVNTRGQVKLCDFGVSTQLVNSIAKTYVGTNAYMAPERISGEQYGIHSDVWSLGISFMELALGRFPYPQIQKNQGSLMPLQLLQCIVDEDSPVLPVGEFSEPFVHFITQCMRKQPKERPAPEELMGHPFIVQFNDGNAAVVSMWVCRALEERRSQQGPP
# Mast/stem cell growth factor receptor Kit (Homo sapiens), P10721 [L576P], sequence (P10721 whole entry L576P, the tested form may be a part): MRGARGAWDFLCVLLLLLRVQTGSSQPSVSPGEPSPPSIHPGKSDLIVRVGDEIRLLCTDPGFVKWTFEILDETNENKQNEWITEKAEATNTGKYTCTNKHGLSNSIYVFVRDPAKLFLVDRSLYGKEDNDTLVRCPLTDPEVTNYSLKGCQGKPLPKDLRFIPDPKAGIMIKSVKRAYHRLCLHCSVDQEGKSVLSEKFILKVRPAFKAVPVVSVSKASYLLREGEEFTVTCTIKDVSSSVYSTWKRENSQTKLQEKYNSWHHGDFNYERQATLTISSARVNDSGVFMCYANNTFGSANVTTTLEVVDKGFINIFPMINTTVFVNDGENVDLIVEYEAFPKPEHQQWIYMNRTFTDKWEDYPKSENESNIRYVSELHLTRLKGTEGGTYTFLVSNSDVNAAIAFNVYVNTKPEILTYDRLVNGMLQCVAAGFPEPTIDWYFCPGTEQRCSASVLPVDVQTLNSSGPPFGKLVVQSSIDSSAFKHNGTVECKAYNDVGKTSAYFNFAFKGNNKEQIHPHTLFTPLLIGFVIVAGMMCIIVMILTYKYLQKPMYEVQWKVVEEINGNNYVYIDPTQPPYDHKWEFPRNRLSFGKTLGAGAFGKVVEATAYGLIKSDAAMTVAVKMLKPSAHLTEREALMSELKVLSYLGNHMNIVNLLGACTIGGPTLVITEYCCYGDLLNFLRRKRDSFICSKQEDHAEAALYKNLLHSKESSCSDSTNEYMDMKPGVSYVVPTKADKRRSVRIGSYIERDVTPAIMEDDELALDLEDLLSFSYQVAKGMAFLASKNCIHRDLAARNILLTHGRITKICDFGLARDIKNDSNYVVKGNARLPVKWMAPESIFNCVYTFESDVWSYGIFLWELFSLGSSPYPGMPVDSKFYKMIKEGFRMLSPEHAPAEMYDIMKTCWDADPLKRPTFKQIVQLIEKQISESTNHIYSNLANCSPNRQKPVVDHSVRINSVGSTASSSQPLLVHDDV
# MAP kinase-activated protein kinase 2 (Homo sapiens), sequence (P49137 whole entry, looked up): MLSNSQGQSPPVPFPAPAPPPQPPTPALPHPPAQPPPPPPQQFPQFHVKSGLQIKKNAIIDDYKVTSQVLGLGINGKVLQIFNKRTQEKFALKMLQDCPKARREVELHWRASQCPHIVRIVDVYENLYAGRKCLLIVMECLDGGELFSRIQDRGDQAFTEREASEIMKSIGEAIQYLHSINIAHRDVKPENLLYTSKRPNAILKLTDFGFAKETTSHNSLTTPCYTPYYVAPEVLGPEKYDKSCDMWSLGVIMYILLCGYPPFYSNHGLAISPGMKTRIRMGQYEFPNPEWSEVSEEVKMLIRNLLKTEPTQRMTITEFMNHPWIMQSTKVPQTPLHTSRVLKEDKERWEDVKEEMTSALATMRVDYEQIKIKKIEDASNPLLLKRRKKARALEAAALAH
# Calcium-dependent protein kinase 1 (Plasmodium falciparum), sequence (P62344 2-524 limits assumed): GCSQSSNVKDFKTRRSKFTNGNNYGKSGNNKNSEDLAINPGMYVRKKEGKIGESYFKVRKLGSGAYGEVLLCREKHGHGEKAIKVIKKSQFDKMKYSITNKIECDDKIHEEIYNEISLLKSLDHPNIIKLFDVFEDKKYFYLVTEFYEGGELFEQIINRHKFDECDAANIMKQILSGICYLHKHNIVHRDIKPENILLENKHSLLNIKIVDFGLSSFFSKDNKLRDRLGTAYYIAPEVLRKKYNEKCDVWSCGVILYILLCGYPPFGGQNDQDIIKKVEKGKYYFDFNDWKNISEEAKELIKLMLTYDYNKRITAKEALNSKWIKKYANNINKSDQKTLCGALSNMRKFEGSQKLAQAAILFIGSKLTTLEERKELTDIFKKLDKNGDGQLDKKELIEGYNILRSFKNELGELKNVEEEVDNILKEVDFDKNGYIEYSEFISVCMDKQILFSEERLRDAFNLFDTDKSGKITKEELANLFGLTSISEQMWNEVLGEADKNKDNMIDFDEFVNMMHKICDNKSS
# Transient receptor potential cation channel subfamily M member 6 (Homo sapiens), sequence (Q9BX84 whole entry): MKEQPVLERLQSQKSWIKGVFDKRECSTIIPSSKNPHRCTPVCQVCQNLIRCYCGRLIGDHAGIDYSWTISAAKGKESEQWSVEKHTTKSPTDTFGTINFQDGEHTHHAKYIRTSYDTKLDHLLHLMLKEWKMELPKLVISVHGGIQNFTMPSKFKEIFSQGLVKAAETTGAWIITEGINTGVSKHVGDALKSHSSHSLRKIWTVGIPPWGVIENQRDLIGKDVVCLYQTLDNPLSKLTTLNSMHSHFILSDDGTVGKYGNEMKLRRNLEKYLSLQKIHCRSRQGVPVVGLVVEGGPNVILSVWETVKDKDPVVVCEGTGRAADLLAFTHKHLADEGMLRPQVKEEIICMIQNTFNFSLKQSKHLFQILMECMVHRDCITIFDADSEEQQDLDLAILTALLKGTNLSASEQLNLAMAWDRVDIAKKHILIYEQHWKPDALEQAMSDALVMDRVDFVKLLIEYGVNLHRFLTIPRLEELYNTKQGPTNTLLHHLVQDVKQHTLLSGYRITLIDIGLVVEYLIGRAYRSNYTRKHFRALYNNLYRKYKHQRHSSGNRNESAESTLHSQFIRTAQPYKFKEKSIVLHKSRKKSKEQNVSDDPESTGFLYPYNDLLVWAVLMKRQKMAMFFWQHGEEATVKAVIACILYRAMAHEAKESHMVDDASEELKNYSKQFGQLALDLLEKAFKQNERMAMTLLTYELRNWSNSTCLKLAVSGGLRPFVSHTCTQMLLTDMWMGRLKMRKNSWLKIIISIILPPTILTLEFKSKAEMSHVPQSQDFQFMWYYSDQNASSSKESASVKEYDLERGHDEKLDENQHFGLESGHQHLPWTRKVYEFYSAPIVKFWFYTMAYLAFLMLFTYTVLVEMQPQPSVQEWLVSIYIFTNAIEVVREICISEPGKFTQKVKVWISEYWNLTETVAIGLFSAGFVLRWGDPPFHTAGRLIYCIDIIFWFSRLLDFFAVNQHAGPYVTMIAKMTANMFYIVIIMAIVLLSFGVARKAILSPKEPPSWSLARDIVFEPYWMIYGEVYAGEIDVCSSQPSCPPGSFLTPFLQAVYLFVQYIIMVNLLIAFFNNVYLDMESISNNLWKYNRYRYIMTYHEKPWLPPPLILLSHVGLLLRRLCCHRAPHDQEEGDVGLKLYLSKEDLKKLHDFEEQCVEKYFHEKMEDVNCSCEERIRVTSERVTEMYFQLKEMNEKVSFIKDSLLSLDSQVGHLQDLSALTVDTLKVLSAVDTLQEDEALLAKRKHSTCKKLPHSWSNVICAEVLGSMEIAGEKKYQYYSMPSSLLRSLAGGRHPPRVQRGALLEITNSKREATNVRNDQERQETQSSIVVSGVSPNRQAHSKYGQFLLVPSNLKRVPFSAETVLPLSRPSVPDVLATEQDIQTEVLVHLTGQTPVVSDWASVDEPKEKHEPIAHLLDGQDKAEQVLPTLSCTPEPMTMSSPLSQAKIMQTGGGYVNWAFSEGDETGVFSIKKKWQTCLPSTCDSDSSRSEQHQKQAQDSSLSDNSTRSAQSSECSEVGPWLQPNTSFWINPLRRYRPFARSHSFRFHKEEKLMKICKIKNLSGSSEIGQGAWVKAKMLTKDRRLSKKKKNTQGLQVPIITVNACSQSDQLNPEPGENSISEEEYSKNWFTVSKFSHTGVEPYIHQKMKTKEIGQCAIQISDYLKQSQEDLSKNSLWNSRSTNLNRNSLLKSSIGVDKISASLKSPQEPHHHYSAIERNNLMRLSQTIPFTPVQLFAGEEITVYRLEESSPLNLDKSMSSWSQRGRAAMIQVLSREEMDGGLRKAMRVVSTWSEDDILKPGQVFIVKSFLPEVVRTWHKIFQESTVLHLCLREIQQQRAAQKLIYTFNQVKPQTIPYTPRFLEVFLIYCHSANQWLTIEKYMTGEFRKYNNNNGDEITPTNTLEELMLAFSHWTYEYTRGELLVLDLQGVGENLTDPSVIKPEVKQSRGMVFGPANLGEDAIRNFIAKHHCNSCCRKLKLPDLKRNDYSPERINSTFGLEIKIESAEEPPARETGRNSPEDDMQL
# 5-hydroxytryptamine receptor 1D (Homo sapiens), sequence (P28221 whole entry): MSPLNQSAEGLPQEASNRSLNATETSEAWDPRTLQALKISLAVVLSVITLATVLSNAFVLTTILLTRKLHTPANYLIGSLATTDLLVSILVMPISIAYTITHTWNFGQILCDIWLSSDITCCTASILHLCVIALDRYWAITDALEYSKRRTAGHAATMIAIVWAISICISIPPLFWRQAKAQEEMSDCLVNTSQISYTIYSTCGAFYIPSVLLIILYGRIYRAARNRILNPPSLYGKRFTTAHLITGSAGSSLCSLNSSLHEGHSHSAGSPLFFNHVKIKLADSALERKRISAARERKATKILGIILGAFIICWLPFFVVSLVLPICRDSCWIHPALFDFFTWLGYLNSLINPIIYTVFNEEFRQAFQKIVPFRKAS
# Testis-specific serine/threonine-protein kinase 3 (Homo sapiens), sequence (Q96PN8 whole entry): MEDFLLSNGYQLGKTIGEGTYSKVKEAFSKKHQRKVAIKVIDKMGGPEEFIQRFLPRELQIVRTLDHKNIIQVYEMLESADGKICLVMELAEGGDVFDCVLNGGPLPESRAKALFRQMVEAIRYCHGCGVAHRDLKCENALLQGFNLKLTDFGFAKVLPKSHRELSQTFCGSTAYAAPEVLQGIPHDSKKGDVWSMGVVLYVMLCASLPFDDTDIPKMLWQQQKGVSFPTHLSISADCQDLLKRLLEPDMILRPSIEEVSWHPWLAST
compound,measurement,setting,value
CO[C@@H](C)c1c(Nc2ccc([C@@H](N(C)C(=O)C3CCS(=O)(=O)CC3)C(F)(F)F)cc2)cnc2cc(Cl)nn12 [NVS-MALT1-C],residual activity,[1],91%
same,residual activity,[2],100%
same,residual activity,[3],85%
same,residual activity,[4],100%
same,residual activity,[5],96%
same,residual activity,[6],82%
same,residual activity,[7],88%
same,residual activity,[8],98%
same,residual activity,[9],75%
same,residual activity,[10],98%
same,residual activity,[11],100%
same,residual activity,[12],100%
same,residual activity,[13],92%
same,residual activity,[14],100%
same,residual activity,[15],100%
same,residual activity,[16],100%
same,residual activity,[17],100%
same,residual activity,[18],91%
same,residual activity,[19],52%
same,residual activity,[20],100%
same,residual activity,[21],100%
same,residual activity,[22],100%
same,residual activity,[23],78%
same,residual activity,[24],96%
same,residual activity,[25],88%
same,residual activity,[26],100%
same,residual activity,[27],99%
same,residual activity,[28],65%
same,residual activity,[29],100%
same,residual activity,[30],90%
same,residual activity,[31],94%
same,residual activity,[32],95%
same,residual activity,[33],84%
same,residual activity,[34],91%
same,residual activity,[35],100%
same,residual activity,[36],100%
same,residual activity,[37],79%
same,residual activity,[38],100%
same,residual activity,[39],92%
same,residual activity,[40],99%
same,residual activity,[41],95%
same,inhibition,[42],-3.07%
same,inhibition,[43],4.93%
same,inhibition,[44],17.9%
same,inhibition,[45],1.55%
CO[C@@H](C)c1c(Nc2ccc([C@H](N(C)C(=O)C3CCS(=O)(=O)CC3)C(F)(F)F)cc2)cnc2cc(Cl)nn12 [NVS-MALT1],residual activity,[1],99%
same,residual activity,[2],100%
same,residual activity,[3],96%
same,residual activity,[4],88%
same,residual activity,[5],39%
same,residual activity,[6],81%
same,residual activity,[7],95%
same,residual activity,[8],99%
same,residual activity,[9],78%
same,residual activity,[10],100%
same,residual activity,[11],100%
same,residual activity,[12],98%
same,residual activity,[13],100%
same,residual activity,[14],78%
same,residual activity,[15],100%
same,residual activity,[16],88%
same,residual activity,[17],90%
same,residual activity,[18],60%
same,residual activity,[19],59%
same,residual activity,[20],100%
same,residual activity,[21],100%
same,residual activity,[22],100%
same,residual activity,[23],97%
same,residual activity,[24],93%
same,residual activity,[25],88%
same,residual activity,[26],100%
same,residual activity,[27],85%
same,residual activity,[28],71%
same,residual activity,[29],87%
same,residual activity,[30],82%
same,residual activity,[31],88%
same,residual activity,[32],94%
same,residual activity,[33],100%
same,residual activity,[34],73%
same,residual activity,[35],100%
same,residual activity,[36],100%
same,residual activity,[37],81%
same,residual activity,[38],100%
same,residual activity,[39],88%
same,residual activity,[40],99%
same,residual activity,[41],89%
same,inhibition,[42],-2.45%
same,inhibition,[43],2.45%
same,inhibition,[44],23.7%
same,inhibition,[45],0.32%

# From ChEMBL document CHEMBL4507320, “Data for DCP probe NVS-MALT1” (2021)
